Experimental data as given in paper PMC3506176 (Nature chemical biology, 2010).

Tests used:
[1] = target: dopamine D2 receptors (Homo sapiens, UniProt P14416); assay type: binding; details: read-out: IC50, inhibition of the FRET signal by increasing concentrations of NAPS; Cos7 cells transfected with D2 receptors; NAPS(Lumi4-Tb) (8) 1 nM and NAPS(d1) (9) 5 nM
[2] = target: T1, oxytocin receptor (Homo sapiens, UniProt P30559); experiment: Binding affinity of ligands for the oxytocin receptor
T1 sequence (P30559 1-389): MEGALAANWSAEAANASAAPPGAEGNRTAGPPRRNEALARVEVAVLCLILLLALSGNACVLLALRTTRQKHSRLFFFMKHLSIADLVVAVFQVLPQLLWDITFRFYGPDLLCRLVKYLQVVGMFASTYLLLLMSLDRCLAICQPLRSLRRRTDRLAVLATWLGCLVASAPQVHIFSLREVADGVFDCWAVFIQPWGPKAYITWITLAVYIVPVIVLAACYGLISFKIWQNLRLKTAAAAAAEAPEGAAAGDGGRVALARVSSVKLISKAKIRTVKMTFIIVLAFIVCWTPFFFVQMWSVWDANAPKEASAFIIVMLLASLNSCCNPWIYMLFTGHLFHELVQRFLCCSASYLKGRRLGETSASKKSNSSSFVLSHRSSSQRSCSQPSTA

[3] = target: T2, oxytocin receptor (Rattus norvegicus, UniProt P70536); assay type: binding; details: mammary gland patches; excess of oxytocin 1 μM
T2 sequence (P70536 1-388): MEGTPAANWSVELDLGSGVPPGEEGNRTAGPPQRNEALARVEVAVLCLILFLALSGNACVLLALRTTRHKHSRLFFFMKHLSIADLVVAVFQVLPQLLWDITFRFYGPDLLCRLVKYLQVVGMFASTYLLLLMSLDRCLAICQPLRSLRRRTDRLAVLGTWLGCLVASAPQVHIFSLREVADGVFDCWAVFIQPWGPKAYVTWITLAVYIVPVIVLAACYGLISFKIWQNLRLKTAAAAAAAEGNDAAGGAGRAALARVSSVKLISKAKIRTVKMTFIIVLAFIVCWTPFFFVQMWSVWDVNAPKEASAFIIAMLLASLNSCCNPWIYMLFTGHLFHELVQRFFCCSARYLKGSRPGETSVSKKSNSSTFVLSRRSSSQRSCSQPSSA

Chain of dopamine D2 receptors (P14416 whole entry): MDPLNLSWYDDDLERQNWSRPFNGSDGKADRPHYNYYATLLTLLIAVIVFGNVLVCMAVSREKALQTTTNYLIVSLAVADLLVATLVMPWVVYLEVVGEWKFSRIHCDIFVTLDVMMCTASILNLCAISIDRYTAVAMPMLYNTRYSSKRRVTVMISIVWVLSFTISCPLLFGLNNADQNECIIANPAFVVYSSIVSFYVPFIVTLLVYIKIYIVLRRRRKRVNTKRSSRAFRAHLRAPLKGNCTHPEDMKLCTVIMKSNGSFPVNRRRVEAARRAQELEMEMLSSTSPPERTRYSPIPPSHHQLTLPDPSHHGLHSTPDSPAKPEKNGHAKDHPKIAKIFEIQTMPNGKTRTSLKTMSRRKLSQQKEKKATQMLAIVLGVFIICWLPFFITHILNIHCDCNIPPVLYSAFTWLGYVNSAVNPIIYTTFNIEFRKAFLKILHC

Affinity for the oxytocin receptor (in words) [2] | Effect on the FRET signal between donor and acceptor antagonists [3] | Compound | IC50 [1]
– | – | Nc1ccc(CCN2CN(c3ccccc3)C3(CCN(CCCC(=O)c4ccc(F)cc4)CC3)C2=O)cc1 [NAPS, N-(p-aminophenethyl)spiperone] | 1.9 nM
high affinities | – | HO-[Thr[4],Orn[8](Alexa-647)]VT [compound 6] | –
high affinities | – | HO-[Thr[4],Orn[8](Eu-PBBP)]VT [compound 5] | –
poor affinity | – | d(CH2)5[DTyr(Et)2,Ile4,Eda(Alexa-647)9]VP [compound 14] | –
no affinity | not affected | glucagon-like peptide 1 [GLP1] | –
